# Biological target: GHS-R (Homo sapiens, UniProt Q92847)
# Assay: cell based assay of GHS-R antagonist/agonist activity
# Design: key: A refers to a compound having antagonist activity with Ki<100 nM in a cell based assay; B refers to a compound having agonist activity with EC50<100 nM in a cell based assay; C refers to a compound having antagonist activity of Ki>100 nM and <1500 nM in a cell based assay; D refers to a compound having antagonist activity with Ki, <100 nM and agonist activity with EC50<100 nM in a cell-based assay; E refers to other exemplary compounds
# Settings: GHS-R antagonist Ki and/or agonist EC50 class
# Procedure: Cell-Based Activity Assays. For example, the ability of the compound to modulate accumulation of a second messenger signaling component downstream of GHS-R can be evaluated. For example, inositol phosphates (IP), as a result of Gq signaling in a mammalian cell, e.g., a Cos-7 cells. Other tissue culture cells, Xenopus oocytes, and primary cells can also be used.
# Phosphatidylinositol turnover assay. One day after transfection COS-7 cells are incubated for 24 hours with 5 μCi of [^3H]-myo-inositol in 1 ml medium supplemented with 10% fetal calf serum, 2 mM glutamine and 0.01 mg/ml gentamicin per well. Cells are then washed twice in buffer, 20 mM HEPES, pH 7.4, supplemented with 140 mM NaCl, 5 mM KCl, 1 mM MgSO4, 1 mM CaCl2, mM glucose, 0.05% (w/v) bovine serum; and incubated in 0.5 ml buffer supplemented with 10 mM LiCl at 37° C. for 30 min. For some assays, it is also useful to incubate the cells with adenosine deaminase ADA (200 U/mg, Boehringer Mannheim, Germany) for 30 min in a concentration of 1 U/ml.
# After incubation with the compound of interest for 45 min at 37° C., cells are extracted with 10% ice-cold perchloric acid and placed on ice for 30 min. The resulting supernatants are neutralized with KOH in HEPES buffer, and [^3H]-inositol phosphate is purified on Bio-Rad AG 1-X8 anion exchange resin as described. Assays can be run in duplicate, triplicate, etc.
# Other second messenger assays. Another second messenger that can be evaluated is Ca^2+. Ca^2+ mobilization can be evaluated using a calcium sensitive detector, such as aequorin protein or a dye, e.g., FURA-2. In an exemplary assay, calcium mobilization is evaluated in a recombinant cell that expresses GHS-R and aequorin.
# Gene expression assay. HEK293 cells (30 000 cells/well) seeded in 96-well plates are transiently transfected with a mixture of pFA2-CREB and pFR-Luc reporter plasmid (PathDetect™ CREB trans-Reporting System, Stratagene) and nucleic acid encoding GHS. One day after transfection, cells are treated with the compound of interest in an assay volume of 100 μl medium for 5 hrs. After treatment, cells are cultured in low serum (2.5%). After the incubation period, the assay is ended by washing the cells twice with PBS and adding 100 μl luciferase assay reagent (LucLite™, Packard Bioscience). Luminescence is measured (e.g., as relative light units (RLU)) using in a luminometer such as the TopCounter™ (Packard Bioscience) for 5 sec.
# IC50 and EC50 values can be determined by nonlinear regression, e.g., using the Prism 3.0 software (GraphPad Software, San Diego).
# Chain of GHS-R (Q92847 whole entry, species assumed): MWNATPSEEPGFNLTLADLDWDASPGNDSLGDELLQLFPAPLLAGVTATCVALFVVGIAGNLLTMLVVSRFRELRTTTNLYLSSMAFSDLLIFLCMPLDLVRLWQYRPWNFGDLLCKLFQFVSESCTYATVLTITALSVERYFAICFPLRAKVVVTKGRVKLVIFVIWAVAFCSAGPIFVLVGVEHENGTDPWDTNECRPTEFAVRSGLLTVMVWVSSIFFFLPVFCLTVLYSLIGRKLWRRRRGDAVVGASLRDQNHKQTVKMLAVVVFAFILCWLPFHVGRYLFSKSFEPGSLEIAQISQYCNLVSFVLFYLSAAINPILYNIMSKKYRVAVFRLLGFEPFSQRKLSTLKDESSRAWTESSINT
row,Compound,Activity
1,CCN(CCS(=O)(=O)N[C@H](COCc1ccccc1)C(=O)N1CCC2(CC1)CN(S(C)(=O)=O)c1ccccc12)C(C)C [Compound 101],E
2,CN1CCC=C(C(=O)N[C@H](COCc2ccccc2)C(=O)N2CCC3(CC2)CN(S(C)(=O)=O)c2ccccc23)C1 [Compound 7],"D (D refers to a compound having antagonist activity with Ki, <100 nM and agonist activity with EC50<100 nM in a cell-based assay)"
3,CC(C)(C)OC(=O)N1CCC=C(C(=O)N[C@H](COCc2ccccc2)C(=O)N2CCC3(CC2)CN(S(C)(=O)=O)c2ccccc23)C1 [Compound 106],E
4,CN1CCN(C(=O)N[C@H](COCc2ccccc2)C(=O)N2CCC3(CC2)CN(S(C)(=O)=O)c2ccccc23)CC1 [Compound 93],E
5,CS(=O)(=O)N1CC2(CCN(C(=O)[C@@H](COCc3ccccc3)NS(=O)(=O)CCCNC3CC3)CC2)c2ccccc21 [Compound 157],E
6,CC(OCc1ccccc1)[C@@H](CC(=O)N1CCC2(CC1)CN(S(C)(=O)=O)c1ccccc12)NC(=O)C1CCN(C)CC1 (stereo partly shown) [Compound 142],E
7,CC(C)NCCCS(=O)(=O)N[C@H](COCc1ccccc1)C(=O)N1CCC2(CC1)CN(S(C)(=O)=O)c1ccccc12 [Compound 148],A (A refers to a compound having antagonist activity with Ki<100 nM in a cell based assay)
8,CN1CCC(CN(C)[C@H](COCc2ccccc2)C(=O)N2CCC3(CC2)CN(S(C)(=O)=O)c2ccccc23)CC1.Cl.Cl [Compound 22],C (C refers to a compound having antagonist activity of Ki>100 nM and <1500 nM in a cell based assay)
9,CCN1CCC(C(=O)N[C@H](COCc2ccccc2)C(=O)N2CCC3(CC2)CN(S(C)(=O)=O)c2ccccc23)CC1 [Compound 27],C (C refers to a compound having antagonist activity of Ki>100 nM and <1500 nM in a cell based assay)
10,CS(=O)(=O)N1CC2(CCN(C(=O)[C@@H](COCc3ccccc3)NC(=O)c3ccccn3)CC2)c2ccccc21 [Compound 53],E
11,CC(C)(C)OC(=O)N[C@H](COCc1ccccc1)C(=O)N1CCC2(CC1)CN(C(=O)CC(=O)O)c1ccccc12 [Compound 62],E
12,CC(=O)N(C1CCN(C)CC1)[C@H](COCc1ccccc1)C(=O)N1CCC2(CC1)CN(S(C)(=O)=O)c1ccccc12 [Compound 88],E
13,CN(C)CC(=O)N[C@H](COCc1ccccc1)C(=O)N1CCC2(CC1)CN(S(C)(=O)=O)c1ccccc12 [Compound 20],C (C refers to a compound having antagonist activity of Ki>100 nM and <1500 nM in a cell based assay)
14,CN1CC=C[C@H]1C(=O)N[C@H](COCc1ccccc1)C(=O)N1CCC2(CC1)CN(S(C)(=O)=O)c1ccccc12 [Compound 11],A (A refers to a compound having antagonist activity with Ki<100 nM in a cell based assay)
15,CCN(CC)CCC(=O)N[C@H](COCc1ccccc1)C(=O)N1CCC2(CC1)CN(S(C)(=O)=O)c1ccccc12 [Compound 111],E
16,CC(=O)OCC(=O)N1CC2(CCN(C(=O)[C@@H](COCc3ccccc3)NC(=O)OC(C)(C)C)CC2)c2ccccc21 [Compound 59],E
17,CN(C)CC(=O)N[C@H](Cc1ccccc1)C(=O)N1CCC2(CC1)CN(S(C)(=O)=O)c1ccccc12 [Compound 123],E
18,CCN(C)CCS(=O)(=O)N[C@H](COCc1ccccc1)C(=O)N1CCC2(CC1)CN(S(C)(=O)=O)c1ccccc12 [Compound 35],C (C refers to a compound having antagonist activity of Ki>100 nM and <1500 nM in a cell based assay)
19,CCN(CC)CCS(=O)(=O)N[C@H](COCc1ccccc1)C(=O)N1CCC2(CC1)CN(S(C)(=O)=O)c1ccccc12 [Compound 8],"D (D refers to a compound having antagonist activity with Ki, <100 nM and agonist activity with EC50<100 nM in a cell-based assay)"
20,COc1cccc(C(=O)N2CC3(CCN(C(=O)[C@@H](COCc4ccccc4)NC(=O)OC(C)(C)C)CC3)c3ccccc32)c1 [Compound 58],E

row,Compound,Activity
1,CN[C@@H](C)C(=O)N[C@H](COCc1ccccc1)C(=O)N1CCC2(CC1)CN(S(C)(=O)=O)c1ccccc12 [Compound 129],B (B refers to a compound having agonist activity with EC50<100 nM in a cell based assay)
2,CC(C)(C)OC(=O)N[C@H](COCc1ccccc1)C(=O)N1CCC2(CC1)CN(S(C)(=O)=O)c1ccccc12 [Compound 9],A (A refers to a compound having antagonist activity with Ki<100 nM in a cell based assay)
3,CC(C)(C)OC(=O)N[C@H](COCc1ccccc1)C(=O)N1CCC2(CC1)CNc1ccccc12 [Compound 56],E
4,CCN(CC)CCCS(=O)(=O)N[C@H](COCc1ccccc1)C(=O)N1CCC2(C=Cc3ccccc32)CC1 [Compound 164],A (A refers to a compound having antagonist activity with Ki<100 nM in a cell based assay)
5,COCCN1CCC(C(=O)N[C@H](COCc2ccccc2)C(=O)N2CCC3(CC2)CN(S(C)(=O)=O)c2ccccc23)CC1 [Compound 33],C (C refers to a compound having antagonist activity of Ki>100 nM and <1500 nM in a cell based assay)
6,CN(C)C[C@H]1CCC[C@@H](CNC(=O)[C@@H](Cc2c[nH]c3ccccc23)NC(=O)N2CCC3(C=Cc4ccccc43)CC2)C1 [Compound 5],A (A refers to a compound having antagonist activity with Ki<100 nM in a cell based assay)
7,CS(=O)(=O)N1CC2(CCN(C(=O)[C@@H](COCc3ccccc3)NC(=O)[C@@H]3C=CCN3)CC2)c2ccccc21 [Compound 18],C (C refers to a compound having antagonist activity of Ki>100 nM and <1500 nM in a cell based assay)
8,CC(C)(C)NC(=S)N[C@H](COCc1ccccc1)C(=O)N1CCC2(CC1)CN(S(C)(=O)=O)c1ccccc12 [Compound 85],E
9,CN(C)Cc1ccc(C(=O)N[C@H](COCc2ccccc2)C(=O)N2CCC3(CC2)CN(S(C)(=O)=O)c2ccccc23)cc1 [Compound 40],C (C refers to a compound having antagonist activity of Ki>100 nM and <1500 nM in a cell based assay)
10,COc1cccc(NC(=O)N2CC3(CCN(C(=O)[C@@H](COCc4ccccc4)NC(=O)CN(C)C)CC3)c3ccccc32)c1 [Compound 69],E
11,CS(=O)(=O)N1CC2(CCN(C(=O)[C@@H](COCc3ccccc3)NS(=O)(=O)CCN3C4CCCC3CC4)CC2)c2ccccc21 [Compound 151],C (C refers to a compound having antagonist activity of Ki>100 nM and <1500 nM in a cell based assay)
12,C[C@@H](OCc1ccccc1)C(NC(=O)C1CCN(C)CC1)C(=O)N1CCC2(CC1)CN(S(C)(=O)=O)c1ccccc12 (stereo partly shown) [Compound 137],E
13,CN(C)C[C@H]1CCC[C@@H](C(=O)N[C@H](COCc2ccccc2)C(=O)N2CCC3(CC2)CN(S(C)(=O)=O)c2ccccc23)C1 [Compound 10],"D (D refers to a compound having antagonist activity with Ki, <100 nM and agonist activity with EC50<100 nM in a cell-based assay)"
14,CNC(C)(C)C(=O)N[C@H](COCc1ccccc1)C(=O)N1CCC2(CC1)CN(S(C)(=O)=O)c1ccccc12 [Compound 132],B (B refers to a compound having agonist activity with EC50<100 nM in a cell based assay)
15,CN(C)C1(C(=O)N[C@H](COCc2ccccc2)C(=O)N2CCC3(CC2)CN(S(C)(=O)=O)c2ccccc23)CCCC1 [Compound 119],E
16,CN(C)C1(C(=O)N[C@H](COCc2ccccc2)C(=O)N2CCC3(CC2)CN(S(C)(=O)=O)c2ccccc23)CCCCC1 [Compound 118],E
17,CC(C)(C)OC(=O)N1CC=C(C(=O)N[C@H](COCc2ccccc2)C(=O)N2CCC3(CC2)CN(S(C)(=O)=O)c2ccccc23)CC1 [Compound 98],E
18,CC(C)(N)C(=O)N[C@H](COCc1ccccc1)C(=O)N1CCC2(CC1)CN(S(C)(=O)=O)c1ccccc12.CS(=O)(=O)O [Compound 125],B (B refers to a compound having agonist activity with EC50<100 nM in a cell based assay)
19,CN1CC2(CCN(C(=O)[C@@H](COCc3ccccc3)NC(=O)OC(C)(C)C)CC2)c2ccccc21 [Compound 48],C (C refers to a compound having antagonist activity of Ki>100 nM and <1500 nM in a cell based assay)
20,CS(=O)(=O)N1CC2(CCN(C(=O)[C@@H](COCc3ccccc3)NC(=O)C3(N)CCCCC3)CC2)c2ccccc21 [Compound 117],E
